Columns and labels:
[1] = system: NCI-H1975 cells EGFR L858R/T790M; assay: NCI-H1975 cell viability assay (Cell Titer-Glo, 6 days); format: cell-based; conditions: Homo sapiens, 144 h
Procedure: (§1) RPMI1640, fetal bovine serum, penicillin/streptomycin solution were purchased from Life Technology (Madison, Wis.). Cell Titer-Glo luminescent cell viability reagents were purchased from Promega (Madison, Wis.). A431 cell line and NCI-H1975 cell line were purchased from European Collection of Cell Cultures (ECACC). Plate Reader Instrument: Envision (PerkinElmer).
(§2) 384-Well plates, 300 of A431 cells and NCI-H1975 cells were inoculated per well, a volume of which was 45 μL. And the plates were incubated overnight in a CO2 incubator at 37° C. The test compound was diluted 3-fold to obtain 10 dose concentrations, the final concentrations of which were from 10 μM to 0.508 nM, two wells. The middle plates were filled with 49 μL of medium per well. 1 μL of compound in the gradient dilution compound plates was transferred to the middle plates and mixed well. And then 5 μL liquid in the middle plates was taken to the cell plates. The cells were incubated in a CO2 incubator for 6 days. After 6 days, 25 μL of detection reagents was added. And then the mixture was incubated at room temperature for 10 minutes and the plates were read by Envision.
(§3) The reading is converted to the suppression rate by the following formula (%) (Max-Sample)/(Max-Min)*100%. IC50 Data was measured by Four-parameter curve fitting (Model 205 in XLFIT5, IDBS).

[2] = system: human skin squamous cell A431 xenograft (CDX); assay: Selectivity study in vivo, A431 xenograft (CDX) model; parameters: species or system BALB/c nude mice; conditions: Table 5 experiment, AZD9291 5 mg/kg
Procedure: In this model, the less inhibitory effect on the tumor, the better the selectivity in vivo.
The selective experiments in vivo were performed on BALB/c nude mice that subcutaneously implanted human skin squamous cell A431 xenograft (CDX).
BALB/c nude mice, female, 6-8 weeks, weighted about 18-20 grams, the mice were kept in a special pathogen-free environment and in a single ventilation cage (5 mice per cage). The bedding and water of all the cages were disinfected before use. All animals were free to obtain standard certified commercial laboratory diets. All mice were purchased from mice of Shanghai BK Laboratory Animal Co., LTD for research. The tumor tissue (20-30 mm^3) was implanted subcutaneously in the […] of each mouse for tumor growth. The experiment was started when the average tumor volume reached about 150-200 mm^3. The test compound was orally administered (compounds 17, 30, 37 and 38 were administered once daily at 20 mg/kg, the compound AZD9291 was administered once daily at 5 mg/kg, the compound CO-1686 was administered twice daily at 50 mg/kg, the compound Erlotinib was administered once daily at 75 mg/kg and the compound Afatinib was administered once daily at 7.5 mg/kg, 21 days of continuous administration. The data were shown in Table 4; compounds 33, 34, 40, 42 and 43 were administered once daily at 20 mg/kg and compound AZD9291 was administered once daily at5 mg/kg, 21 days of continuous administration. The tumor volume was measured twice a week with a two-dimensional caliper and the volume was measured in cubic millimeters and calculated by the following formula: V=V=0.5 a×b2, where a and b were the major and minor diameters of the tumor, respectively.

[3] = system: NCI-H1975 lung cancer patient-derived xenograft (CDX); assay: Pharmacodynamics study in vivo, NCI-H1975 xenograft (CDX) model; parameters: species or system BALB/c nude mice; conditions: AZD9291 5 mg/kg
Procedure: For example, after 21 days of administration, the tumor volume of the representative compounds 30, 33, 34, 40, 42 and 43 decreased from the beginning of about 149 mm^3 to 3-39 mm^3.
The pharmacological experiments in vivo were performed on BALB/c nude mice that subcutaneously implanted NCI-H1975 lung cancer […] xenograft (CDX).
BALB/c nude mice, female, 6-8 weeks, weighted about 18-22 grams, the mice were kept in a special pathogen-free environment, and in a single ventilation cage (5 mice per cage). The bedding and water of all the cages were disinfected before use. All animals were free to obtain standard certified commercial laboratory diets. A total of 100 mice were purchased from Beijing Vital for research. The tumor tissue (20-30 mm^3) was implanted subcutaneously in the […] of each mouse for tumor growth. The experiment was started when the average tumor volume reached about 150-200 mm^3. The test compound was orally administered daily (compound 30 was administered at 10 mg/kg, compound 33, 34, 40, 42 and 43 were administered at 20 mg/kg and compound AZD9291 was administered continuously for 21 days at 5 mg/kg, the data were shown in Table 3). The tumor volume was measured twice a week with a two-dimensional caliper and the volume was measured in cubic millimeters and calculated by the following formula: V=V=0.5 a×b2, where a and b were the major and minor diameters of the tumor, respectively.

A431 cells EGFR WT = assay: A431 cell viability assay (Cell Titer-Glo, 6 days); format: cell-based, human; conditions: for IC50: Homo sapiens, A-431, 144 h, A431 cells, 6 days; for A431:NCI-H1975 (ratio): ratio of cell IC50 A431 to NCI-H1975
Procedure: as §1, §2, §3

EGFR d746-750/T790M = biological target: T1, EGFR d746-750/T790M (Homo sapiens, UniProt P00533, DEL746-750/T790M); assay: EGFR d746-750/T790M enzyme HTRF inhibition assay; format: biochemical; conditions: 40 μM ATP
T1 construct: purchased Carna Biosciences (Japan)
T1 sequence (P00533 with tags, fused parts or gaps DEL746-750/T790M limits assumed): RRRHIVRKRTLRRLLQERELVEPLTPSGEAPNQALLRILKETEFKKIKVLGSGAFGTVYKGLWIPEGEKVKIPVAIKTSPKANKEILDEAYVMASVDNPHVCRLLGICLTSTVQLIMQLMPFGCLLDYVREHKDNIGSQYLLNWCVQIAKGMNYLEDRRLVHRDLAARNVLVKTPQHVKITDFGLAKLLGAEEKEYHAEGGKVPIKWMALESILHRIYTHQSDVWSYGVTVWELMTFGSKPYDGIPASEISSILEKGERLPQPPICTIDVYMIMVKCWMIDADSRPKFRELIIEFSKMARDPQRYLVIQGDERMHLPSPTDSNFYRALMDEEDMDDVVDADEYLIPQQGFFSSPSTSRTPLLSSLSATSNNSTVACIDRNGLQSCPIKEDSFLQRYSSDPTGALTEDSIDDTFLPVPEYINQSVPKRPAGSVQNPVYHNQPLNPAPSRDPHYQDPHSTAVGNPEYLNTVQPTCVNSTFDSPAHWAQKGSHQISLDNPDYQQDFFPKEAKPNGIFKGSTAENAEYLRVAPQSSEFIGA
Procedure: (§4) Enzyme: EGFR wild type, EGFR T790M/L858R, EGFR T790M and INSR were purchased from Life technology (Madison, Wis.), EGFR d746-750/T790M was purchased from Carna Biosciences (Japan).
(§5) HTRF Kit was purchased from Cis-Bio International which contained the Eu-labeled TK1 antibody, XL665 and biotin-labeled TK1 polypeptide substrates.
(§6) Detecting instrument: Envision (PerkinElmer).
(§7) The test compound was diluted 3-fold to obtain 10 doses of which the final concentration was from 300 nM to 0.015 nM.
EGFR d746-750/T790M Enzyme Reaction Mixture System:
0.025 nM EGFR d746-750/T790M, 1 μM biotin-TK1 peptide, 40 μM ATP enzyme buffer, a total of which was 10 μL. The reaction plate was white Proxiplate 384-Plus plate (PerkinElmer) and the mixture was reacted at 23° C. for 60 minutes.
(§8) Reaction Detection: 10 μL of detection reagent containing Antibody 2 nM and XL665 62.5 nM was added, and the reagent was incubated at 23° C. for 60 minutes. The plates were read by Envision.
(§9) The reading is converted to the suppression rate (%) by the following formula […]/(Max-Min)*100%. IC50 Data was measured by four-parameter curve fitting (Model 205 in XLFITS, IDBS).

EGFR wild type = biological target: T2, EGFR wild type (Homo sapiens, UniProt P00533); assay: Wild-type EGFR enzyme HTRF inhibition assay; format: biochemical; conditions: 25 μM ATP, read-out: EGFR WT IC50
T2 construct: purchased Life technology (Madison, Wis.)
T2 sequence (P00533 25-1210): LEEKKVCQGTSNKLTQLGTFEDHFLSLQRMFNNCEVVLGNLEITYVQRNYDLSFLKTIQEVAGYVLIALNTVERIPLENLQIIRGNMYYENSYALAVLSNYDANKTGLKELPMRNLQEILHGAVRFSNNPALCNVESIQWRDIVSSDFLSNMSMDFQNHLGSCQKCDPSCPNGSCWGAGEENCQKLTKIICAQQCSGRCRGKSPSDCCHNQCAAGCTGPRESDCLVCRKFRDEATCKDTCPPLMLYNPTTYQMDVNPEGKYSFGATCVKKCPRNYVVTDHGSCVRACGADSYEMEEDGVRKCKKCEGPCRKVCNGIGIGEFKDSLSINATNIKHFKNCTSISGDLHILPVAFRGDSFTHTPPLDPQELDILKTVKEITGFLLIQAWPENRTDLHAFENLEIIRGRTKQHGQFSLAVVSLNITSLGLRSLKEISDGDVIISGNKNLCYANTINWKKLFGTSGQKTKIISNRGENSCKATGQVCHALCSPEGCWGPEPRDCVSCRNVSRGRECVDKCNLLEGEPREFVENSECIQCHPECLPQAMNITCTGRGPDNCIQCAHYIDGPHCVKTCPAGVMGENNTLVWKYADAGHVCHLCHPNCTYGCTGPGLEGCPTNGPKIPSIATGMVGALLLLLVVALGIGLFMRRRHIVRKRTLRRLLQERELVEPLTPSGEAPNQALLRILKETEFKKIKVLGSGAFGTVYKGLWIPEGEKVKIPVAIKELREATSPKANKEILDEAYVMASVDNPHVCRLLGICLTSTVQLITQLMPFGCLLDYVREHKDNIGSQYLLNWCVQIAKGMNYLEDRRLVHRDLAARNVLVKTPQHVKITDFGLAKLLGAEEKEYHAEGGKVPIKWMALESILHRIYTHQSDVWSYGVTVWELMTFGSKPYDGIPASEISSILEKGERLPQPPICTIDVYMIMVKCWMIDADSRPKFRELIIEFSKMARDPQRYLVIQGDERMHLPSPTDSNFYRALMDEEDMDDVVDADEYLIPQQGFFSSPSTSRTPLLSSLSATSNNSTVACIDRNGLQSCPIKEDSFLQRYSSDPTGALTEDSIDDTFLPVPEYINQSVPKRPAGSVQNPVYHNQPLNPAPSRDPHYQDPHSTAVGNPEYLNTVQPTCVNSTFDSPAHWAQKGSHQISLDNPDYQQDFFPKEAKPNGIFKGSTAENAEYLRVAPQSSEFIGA
Procedure: as §4, §5, §6, §7
Wild-Type EGFR Enzyme Reaction Mixture System:
0.05 nM Wild-type EGFR, 1 μM biotin-TK1 peptide, 25 μM ATP enzyme buffer, a total of which was 10 μL. The reaction plate was white Proxiplate 384-Plus plate (PerkinElmer) and the mixture was reacted at 23° C. for 60 minutes.
as §8, §9

EGFR T790M/L858R = biological target: T3, EGFR T790M/L858R (Homo sapiens, UniProt P00533, L858R/T790M); assay: EGFR T790M/L858R enzyme HTRF inhibition assay; format: biochemical; conditions: 20 μM ATP, read-out: EGFR L858R/T79M IC50
T3 construct: purchased Life technology (Madison, Wis.)
T3 sequence (P00533 25-1210 T790M/L858R): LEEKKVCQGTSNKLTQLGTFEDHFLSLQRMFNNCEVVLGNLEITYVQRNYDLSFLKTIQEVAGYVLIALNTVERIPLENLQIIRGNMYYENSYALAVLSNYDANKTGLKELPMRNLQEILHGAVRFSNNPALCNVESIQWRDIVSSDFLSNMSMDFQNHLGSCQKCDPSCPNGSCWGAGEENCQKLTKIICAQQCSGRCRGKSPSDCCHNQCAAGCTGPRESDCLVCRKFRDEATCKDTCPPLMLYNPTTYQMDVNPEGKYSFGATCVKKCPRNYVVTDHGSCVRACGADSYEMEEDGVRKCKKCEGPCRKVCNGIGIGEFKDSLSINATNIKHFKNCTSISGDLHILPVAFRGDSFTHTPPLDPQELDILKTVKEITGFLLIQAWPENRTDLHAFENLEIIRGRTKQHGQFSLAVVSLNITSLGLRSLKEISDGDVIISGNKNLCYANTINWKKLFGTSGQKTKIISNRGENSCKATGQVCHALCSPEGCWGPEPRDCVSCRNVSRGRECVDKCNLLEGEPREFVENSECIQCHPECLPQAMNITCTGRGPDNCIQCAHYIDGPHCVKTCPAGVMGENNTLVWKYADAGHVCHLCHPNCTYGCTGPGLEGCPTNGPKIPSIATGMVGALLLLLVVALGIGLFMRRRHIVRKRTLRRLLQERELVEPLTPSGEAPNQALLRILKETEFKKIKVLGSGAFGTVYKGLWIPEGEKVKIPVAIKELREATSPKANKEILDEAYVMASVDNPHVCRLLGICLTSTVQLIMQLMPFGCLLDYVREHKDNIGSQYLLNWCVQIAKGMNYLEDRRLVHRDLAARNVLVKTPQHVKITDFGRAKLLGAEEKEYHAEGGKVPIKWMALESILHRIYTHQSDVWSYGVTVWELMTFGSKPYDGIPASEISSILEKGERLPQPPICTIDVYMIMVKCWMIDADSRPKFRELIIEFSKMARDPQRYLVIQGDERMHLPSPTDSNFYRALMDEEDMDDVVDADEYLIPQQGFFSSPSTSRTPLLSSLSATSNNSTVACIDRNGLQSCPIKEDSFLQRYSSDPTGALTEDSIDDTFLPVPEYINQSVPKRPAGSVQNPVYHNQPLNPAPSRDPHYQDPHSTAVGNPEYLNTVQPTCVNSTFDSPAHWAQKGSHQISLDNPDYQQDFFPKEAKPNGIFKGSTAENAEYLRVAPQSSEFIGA
Procedure: as §4, §5, §6, §7
EGFR T790M/L858R Enzyme Reaction Mixture System:
0.04 nM EGFR T790M/L858R, 1 μM biotin-TK1 peptide, 20 μM ATP enzyme buffer, a total of which was 10 μL. The reaction plate was white Proxiplate 384-Plus plate (PerkinElmer) and the mixture was reacted at 23° C. for 60 minutes.
as §8, §9

| Compound | IC50 [1] [nM] | Tumor Volume (mm^3) 4 days ([2]; day 4, oral once daily: 33, 34, 40, 42, 43 20 mg/kg) [mm^3] | Tumor Volume (mm^3) 11 days ([2]; day 11, oral once daily: 33, 34, 40, 42, 43 20 mg/kg) [mm^3] | Tumor Volume (mm^3) 18 days ([2]; day 18, oral once daily: 33, 34, 40, 42, 43 20 mg/kg) [mm^3] | Tumor Volume (mm^3) 4 days ([3]; day 4, oral daily: compound 30 10 mg/kg, 33, 34, 40, 42, 43 20 mg/kg) [mm^3] | Tumor Volume (mm^3) 7 days ([3]; day 7, oral daily: compound 30 10 mg/kg, 33, 34, 40, 42, 43 20 mg/kg) [mm^3] | Tumor Volume (mm^3) 11 days ([3]; day 11, oral daily: compound 30 10 mg/kg, 33, 34, 40, 42, 43 20 mg/kg) [mm^3] | Tumor Volume (mm^3) 14 days ([3]; day 14, oral daily: compound 30 10 mg/kg, 33, 34, 40, 42, 43 20 mg/kg) [mm^3] | Tumor Volume (mm^3) 18 days ([3]; day 18, oral daily: compound 30 10 mg/kg, 33, 34, 40, 42, 43 20 mg/kg) [mm^3] | IC50 (A431 cells EGFR WT) [nM] | A431:NCI-H1975 (ratio) (A431 cells EGFR WT) | IC50 (EGFR d746-750/T790M) [nM] | IC50 (EGFR wild type) [nM] | IC50 (EGFR T790M/L858R) [nM] |
| --- | --- | --- | --- | --- | --- | --- | --- | --- | --- | --- | --- | --- | --- | --- |
| C=CC(=O)Nc1cc(Nc2nccc(-c3cn4c5c(cccc35)OC3(CC3)C4)n2)c(OC)cc1N(C)CC(C)(C)N(C)C [Embodiment 43, N-(5-((4-(3H-Spiro[[1,4]oxazino[2,3,4-hi]indole-2,1′-cyclopropan]-6-yl)pyrimidin-2-yl)amino)-2-((2-(dimethylamino)-2-methylpropyl)(methyl)amino)-4-methoxyphenyl)acrylamide] | 264 | 238 | 516 | 820 | 92 | 65 | 61 | 45 | 23 | 548 | 2.1 |  |  |  |
| C=CC(=O)Nc1cc(Nc2nccc(-c3c4n(c5ccccc35)CCOC4)n2)c(OC)cc1N(C)CCNC(C)(C)C [Embodiment 24, N-(2-((2-(tert-Butylamino)ethyl)(methyl)amino)-5-((4-(3,4-dihydro-1H-[1,4]oxazino[4,3-a]indol-10-yl)pyrimidin-2-yl)amino)-4-methoxyphenyl)acrylamide] | 172 |  |  |  |  |  |  |  |  | 2660 | 15 | 1.3 | 36.4 | 1.9 |
| C=CC(=O)Nc1cc(Nc2nccc(-c3c4n(c5ccccc35)CCC4)n2)c(OC)cc1C#CCN(C)C [Embodiment 8, N-(5-((4-(2,3-Dihydro-1H-pyrrolo[1,2-a]indol-9-yl)pyrimidin-2-yl)amino)-2-(3-(dimethylamino)prop-1-yn-1-yl)-4-methoxyphenyl)acrylamide] | 474 |  |  |  |  |  |  |  |  | 5460 | 11.5 | 0.64 | 5.22 | 0.91 |
| C=CC(=O)Nc1cc(Nc2ncc(F)c(-c3c4n(c5ccccc35)CCOC4)n2)c(OC)cc1N(C)CC(C)(C)N(C)C [Embodiment 32, N-(5-((4-(3,4-Dihydro-1H-[1,4]oxazino[4,3-a]indol-10-yl)-5-fluoropyrimidin-2-yl)amino)-2-((2-(dimethylamino)-2-methylpropyl)(methyl)amino)-4-methoxyphenyl)acrylamide] | 3 |  |  |  |  |  |  |  |  | 597 | 199 | 0.2 | 0.3 | 0.1 |
| C=CC(=O)Nc1cc(Nc2nccc(-c3c4n(c5ccccc35)CCOC4)n2)c(OC)cc1N(C)CCN(CC)CC [Embodiment 16, N-(2-((2-(Diethylamino)ethyl)(methyl)amino)-5-((4-(3,4-dihydro-1H-[1,4]oxazino[4,3-a]indol-10-yl)pyrimidin-2-yl)amino)-4-methoxyphenyl)acrylamide] | 17 |  |  |  |  |  |  |  |  | 1060 | 63 | 0.33 | 4 | 0.29 |
| C=CC(=O)Nc1cc(Nc2nccc(-c3c4n(c5ccccc35)CCC4)n2)c(OC)cc1N(C)C(C)CN(C)C (centres unmarked) [Embodiment 11, N-(5-((4-(2,3-Dihydro-1H-pyrrolo[1,2-a]indol-9-yl)pyrimidin-2-yl)amino)-2-((1-(dimethylamino)propan-2-yl)(methyl)amino)-4-methoxyphenyl)acrylamide] | 6.1 |  |  |  |  |  |  |  |  | 270 | 44.3 | 0.2 | 0.53 | 0.23 |
| C=CC(=O)Nc1cc(Nc2nccc(-c3c4n(c5ccccc35)CCC4)n2)c(OC)cc1N1CC(N(C)C)C1 [Embodiment 2, N-(5-((4-(2,3-Dihydro-1H-pyrrolo[1,2-a]indol-9-yl)pyrimidin-2-yl)amino)-2-(3-(dimethylamino)azetidin-1-yl)-4-methoxyphenyl)acrylamide] | 4740 |  |  |  |  |  |  |  |  | > 10000 | >2.1 | 0.67 | 4.31 | 0.55 |

From patent US10093656B2, “Fused-ring or tricyclic aryl pyrimidine compound used as kinase inhibitor” (NANJING SANHOME PHARMACEUTICAL CO., LTD, priority 2015, dated 2018)
